This note sets out measurements from patent publication US4594241A, “Anti-leishmanial pharmaceutical formulations” (Burroughs Wellcome Co., priority 1982, dated 1986).

Experiment [1] relates to Leishmania donovani. As to the kind of experiment: Animal test: mice infected with Leishmania donovani, single intravenous injection (Experiment No. 82), liver parasite count. The format is in vivo, Leishmania donovani in Balb/c mice. The text has this: Inbred male mice, strain Balb/c (Bantin & Kingman), were infected with Leishmania donovani by intravenous inoculation of 10^7 amastigotes from the spleen of an infected hamster. One week after inoculation, the mice were divided into groups of 9-10 animals and dosed intravenously into the tail vein with sodium stibogluconate, either as free drug or entrapped in liposomes similar to those described in Example 1. […] Empty liposomes were inoculated into one group as controls. Seven days after the first dose of drug, the mice were killed, the livers excised and weighed, and impression smears prepared from a cut surface of the liver. The impression smears were stained with Giemsa, and number of amastigotes counted microscopically per 500 liver cell nuclei, and the total number of parasites calculated by the method of Stauber et al. J. Protozoology, 5, 269, (1958).
(§1) The doses of sodium stibogluconate were calculated in terms of mg antimony/kg for both free and entrapped drug. The liposome dilutions were freshly prepared for each day of drug treatment.
The results of treatment are expressed as the mean of the total numbers of amastigotes in the liver of each mouse. The following results were obtained:
Further animal tests on mice, as described in Example 2, were carried out using a liposomal formulation corresponding to that described as Preparation No. 8 in Example 2. […]

The subject of experiment [2] is Leishmania donovani. As to the kind of experiment: Animal test: Balb/c mice infected with Leishmania donovani, intravenous treatment once daily for 5 days, liver parasite count. The format is in vivo, Leishmania donovani in Balb/c mice. As to conditions: for ED50 (P95 limits): i.v. daily for 5 days, 10080 min.
From the text: Inbred male mice, strain Balb/c (Bantin & Kingman), were infected with Leishmania donovani by intravenous inoculation of 10^7 amastigotes from the spleen of an infected hamster. One week after inoculation, the mice were divided into groups of 9-10 animals and dosed intravenously into the tail vein with sodium stibogluconate, either as free drug or entrapped in liposomes similar to those described in Example 1. The dose was given once daily for 5 days. Empty liposomes were inoculated into one group as controls. Seven days after the first dose of drug, the mice were killed, the livers excised and weighed, and impression smears prepared from a cut surface of the liver. The impression smears were stained with Giemsa, and number of amastigotes counted microscopically per 500 liver cell nuclei, and the total number of parasites calculated by the method of Stauber et al. J. Protozoology, 5, 269, (1958).
as §1
The results of treatment are expressed as the mean of the total numbers of amastigotes in the liver of each mouse.

[3] abbreviates: expt. 44, 15 mg Sb/kg × 5, i.v.
The mark [4] stands for this setting: expt. 56, 0.5 mg Sb/kg × 5, i.v.
[5] abbreviates: expt. 56, 1.0 mg Sb/kg × 5, i.v.
Setting [6] is: expt. 56, 2.0 mg Sb/kg × 5, i.v.
Where [7] appears, read: expt. 56, 4.0 mg Sb/kg × 5, i.v.

Consider sodium stibogluconate, for which the “ED50 (dosage rate necessary to reduce the parasite count to 50% of the untreated group)” value in the experiment with Leishmania donovani [1] is 61.2 mg antimony per kilogram body weight. Also, the “Potency relates to free drug (P95 limits)” value in the experiment on Leishmania donovani [2] (Expt. 44) and with Leishmania donovani [2] (Expt. 56) was 1 in each case. The “ED50 (P95 limits)” value in the experiment on Leishmania donovani [2] (Expt. 44) was 2.4 (3.2-1.8) mg Sb/kg × 5; in the experiment with Leishmania donovani [2] (Expt. 56), 1.14 (1.35-0.95) mg Sb/kg × 5. The % inhibition (as a rule, the drop in the measured response relative to a control, in per cent) turned out to be 72% in the experiment on Leishmania donovani [2] (expt. 44, 5 mg Sb/kg × 5, i.v.); 93% in the experiment with Leishmania donovani [2] (setting [3]); 23% in the experiment with Leishmania donovani [2] (setting [4]); 26% with Leishmania donovani [2] (setting [5]); 69% in the experiment with Leishmania donovani [2] (setting [6]); 93% with Leishmania donovani [2] (setting [7]). Besides, the “Mean no. of parasites/mouse liver ± SE” value was 1.54 ± 0.21 × 10^8 with Leishmania donovani [2] (expt. 44, 5 mg Sb/kg × 5, i.v.); 0.38 ± 0.08 × 10^8 with Leishmania donovani [2] (setting [3]); 3.80 ± 0.37 × 10^8 with Leishmania donovani [2] (setting [4]); 3.65 ± 0.29 × 10^8 with Leishmania donovani [2] (setting [5]); 1.55 ± 0.36 × 10^8 in the experiment on Leishmania donovani [2] (setting [6]); 0.35 ± 0.11 × 10^8 in the experiment with Leishmania donovani [2] (setting [7]).
